Columns and labels:
Format in all cases: in vivo
[1] = tested on: Surinam grass (Brachiaria decumbens); assay: Test B preemergence
Outline: (§1)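 Ratings on a 0 to 100 visual scale (100 complete control) compare treated plants with controls 13 to 15 days after application. Treatments were pre- or postemergence sprays of compound in non-phytotoxic solvent with surfactant.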

[2] = tested on: barnyardgrass (Echinochloa crus-galli); assay: Test B preemergence
Outline: as §1

[3] = tested on: cocklebur (Xanthium strumarium); assay: Test B preemergence
Outline: as §1

[4] = tested on: corn (Zea mays); assay: Test B preemergence
Outline: as §1

[5] = tested on: crabgrass (Digitaria sanguinalis); assay: Test B preemergence
Outline: as §1

[6] = tested on: giant foxtail (Setaria faberii); assay: Test B preemergence
Outline: as §1

[7] = tested on: lambsquarters (Chenopodium album); assay: Test B preemergence
Outline: as §1

[8] = tested on: morning glory (Ipomoea hederacea); assay: Test B preemergence
Outline: as §1

[9] = tested on: pigweed (Amaranthus retroflexus); assay: Test B preemergence
Outline: as §1

[10] = tested on: rice (Oryza saliva); assay: Test B preemergence
Outline: as §1

[11] = tested on: velvetleaf (Abutilon theophrasti); assay: Test B preemergence
Outline: as §1

[12] = tested on: Nightshade; assay: Test C preemergence
[13] = tested on: Surinam grass (Brachiaria decumbens); assay: Test C preemergence; details: for Plant response rating (0 to 100), Surinam grass: Rate 500 g/ha, visual evaluation after 12 to 14 days
Outline: (§2)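 Herbicidal effect is a visual 0–100 score (100 = complete control) assigned versus untreated plants, 12 to 14 days after spraying in the greenhouse. Test compounds were applied in a non-phytotoxic, surfactant-containing solvent.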

[14] = tested on: cocklebur (Xanthium strumarium); assay: Test C preemergence; details: for Plant response rating (0 to 100), Cocklebur: Rate 500 g/ha, visual evaluation after 12 to 14 days
Outline: as §2

[15] = tested on: common ragweed (Ambrosia elatior); assay: Test C preemergence; details: for Plant response rating (0 to 100), Ragweed, Common: Rate 500 g/ha, visual evaluation after 12 to 14 days
Outline: as §2

[16] = tested on: crabgrass (Digitaria sanguinalis); assay: Test C preemergence; details: for Plant response rating (0 to 100), Crabgrass: Rate 500 g/ha, visual evaluation after 12 to 14 days
Outline: as §2

[17] = tested on: goosegrass (Eleusine indica); assay: Test C preemergence; details: for Plant response rating (0 to 100), Goosegrass: Rate 500 g/ha, visual evaluation after 12 to 14 days
Outline: as §2

[18] = tested on: lambsquarters (Chenopodium album); assay: Test C preemergence; details: for Plant response rating (0 to 100), Lambsquarters: Rate 500 g/ha, visual evaluation after 12 to 14 days
Outline: as §2

[19] = tested on: pigweed (Amaranthus retroflexus); assay: Test C preemergence; details: for Plant response rating (0 to 100), Pigweed: Rate 500 g/ha, visual evaluation after 12 to 14 days
Outline: as §2

[20] = tested on: soybean (Glycine max); assay: Test C preemergence; details: for Plant response rating (0 to 100), Soybean: Rate 500 g/ha, visual evaluation after 12 to 14 days
Outline: as §2

[21] = tested on: woolly cupgrass (Eriochloa villosa); assay: Test C preemergence; details: for Plant response rating (0 to 100), Cupgrass, Woolly: Rate 500 g/ha, visual evaluation after 12 to 14 days
Outline: as §2

[22] = Preemergence, Rate 500 g/ha, scale 0 to 100, 0 no effect, 100 complete control
[23] = preemergence, Rate 125 g/ha, scale of 0 to 100 where 0 is no effect and 100 is complete control, 13 to 15 days
[24] = Rate 125 g/ha, scale 0 to 100, 0 no effect, 100 complete control
[25] = Rate 250 g/ha, scale 0 to 100, 0 no effect, 100 complete control
[26] = preemergence, Rate 62 g/ha, scale 0 to 100
[27] = preemergence, Rate 250 g/ha, scale 0 to 100, 0 no effect, 100 complete control

CCCC(C)c1ccn(C2OCN(c3cccc(OC(F)(F)F)c3)C2=O)n1 (centres unmarked) [Compound 91]
30: Plant response rating, Corn [4, 22] | Plant response rating, Surinam grass [13, 24] | Plant response rating, Surinam grass [13, 27]
80: Plant response rating, Surinam grass [1, 22] | Plant response rating (0 to 100), Surinam grass ([13]; preemergence)
100: Plant response rating, Barnyardgrass [2, 22] | Plant response rating, Barnyardgrass [2, 23] | Plant response rating, Crabgrass [5, 22] | Plant response rating, Crabgrass [5, 23] | Plant response rating, Foxtail, Giant [6, 22] | Plant response rating, Lambsquarters [7, 22] | Plant response rating, Lambsquarters [7, 23] | Plant response rating, Pigweed [9, 22] | Plant response rating, Crabgrass [16, 24] | Plant response rating, Crabgrass [16, 26] | Plant response rating (0 to 100), Crabgrass ([16]; preemergence) | Plant response rating, Crabgrass [16, 27] | Plant response rating, Goosegrass [17, 24] | Plant response rating (0 to 100), Goosegrass ([17]; preemergence) | Plant response rating, Goosegrass [17, 27] | Plant response rating, Lambsquarters [18, 24] | Plant response rating (0 to 100), Lambsquarters ([18]; preemergence) | Plant response rating, Lambsquarters [18, 27] | Plant response rating (0 to 100), Pigweed ([19]; preemergence) | Plant response rating (0 to 100), Cupgrass, Woolly ([21]; preemergence)
90: Plant response rating, Foxtail, Giant [6, 23] | Plant response rating, Pigweed [9, 23] | Plant response rating, Goosegrass [17, 26] | Plant response rating, Lambsquarters [18, 26] | Plant response rating, Cupgrass, Woolly [21, 27]
70: Plant response rating, Surinam grass [1, 23] | Plant response rating, Cupgrass, Woolly [21, 24]
0: Plant response rating, Cocklebur [3, 22] | Plant response rating, Cocklebur [3, 23] | Plant response rating, Corn [4, 23] | Plant response rating, Morningglory [8, 22] | Plant response rating, Morningglory [8, 23] | Plant response rating, Rice [10, 22] | Plant response rating, Rice [10, 23] | Plant response rating, Velvetleaf [11, 22] | Plant response rating, Velvetleaf [11, 23] | Plant response rating, Nightshade ([12]; Rate 62 g/ha, scale 0 to 100) | Plant response rating, Nightshade [12, 24] | Plant response rating, Nightshade [12, 25] | Plant response rating, Surinam grass [13, 26] | Plant response rating, Cocklebur [14, 24] | Plant response rating, Cocklebur [14, 26] | Plant response rating, Cocklebur [14, 27] | Plant response rating, Ragweed, Common [15, 24] | Plant response rating, Ragweed, Common [15, 26] | Plant response rating (0 to 100), Ragweed, Common ([15]; preemergence) | Plant response rating, Ragweed, Common [15, 27] | Plant response rating, Pigweed [19, 24] | Plant response rating, Pigweed [19, 26] | Plant response rating, Pigweed [19, 27] | Plant response rating, Soybean [20, 24] | Plant response rating, Soybean [20, 26] | Plant response rating (0 to 100), Soybean ([20]; preemergence) | Plant response rating, Soybean [20, 27]
10: Plant response rating (0 to 100), Cocklebur ([14]; preemergence) | Plant response rating, Cupgrass, Woolly [21, 26]

CCCC(C)c1ccn(C2CCN(c3cccc(OCC)c3)C2=O)n1 (centres unmarked) [Compound 129]
30: Plant response rating, Corn [4, 22] | Plant response rating, Rice [10, 23]
50: Plant response rating, Rice [10, 22]
10: Plant response rating, Nightshade [12, 25] | Plant response rating, Soybean [20, 26]
20: Plant response rating, Corn [4, 23] | Plant response rating, Pigweed [19, 26] | Plant response rating, Soybean [20, 24] | Plant response rating (0 to 100), Soybean ([20]; preemergence) | Plant response rating, Soybean [20, 27]
60: Plant response rating, Pigweed [19, 27]
100: Plant response rating, Surinam grass [1, 22] | Plant response rating, Barnyardgrass [2, 22] | Plant response rating, Barnyardgrass [2, 23] | Plant response rating, Crabgrass [5, 22] | Plant response rating, Crabgrass [5, 23] | Plant response rating, Foxtail, Giant [6, 22] | Plant response rating, Foxtail, Giant [6, 23] | Plant response rating, Lambsquarters [7, 22] | Plant response rating, Lambsquarters [7, 23] | Plant response rating, Pigweed [9, 22] | Plant response rating, Pigweed [9, 23] | Plant response rating (0 to 100), Surinam grass ([13]; preemergence) | Plant response rating (0 to 100), Ragweed, Common ([15]; preemergence) | Plant response rating, Ragweed, Common [15, 27] | Plant response rating, Crabgrass [16, 24] | Plant response rating, Crabgrass [16, 26] | Plant response rating (0 to 100), Crabgrass ([16]; preemergence) | Plant response rating, Crabgrass [16, 27] | Plant response rating, Goosegrass [17, 24] | Plant response rating, Goosegrass [17, 26] | Plant response rating (0 to 100), Goosegrass ([17]; preemergence) | Plant response rating, Goosegrass [17, 27] | Plant response rating, Lambsquarters [18, 24] | Plant response rating, Lambsquarters [18, 26] | Plant response rating (0 to 100), Lambsquarters ([18]; preemergence) | Plant response rating, Lambsquarters [18, 27] | Plant response rating, Pigweed [19, 24] | Plant response rating (0 to 100), Pigweed ([19]; preemergence) | Plant response rating, Cupgrass, Woolly [21, 24] | Plant response rating (0 to 100), Cupgrass, Woolly ([21]; preemergence) | Plant response rating, Cupgrass, Woolly [21, 27]
90: Plant response rating, Surinam grass [1, 23] | Plant response rating, Surinam grass [13, 27] | Plant response rating, Cupgrass, Woolly [21, 26]
80: Plant response rating, Surinam grass [13, 24] | Plant response rating, Surinam grass [13, 26]
0: Plant response rating, Cocklebur [3, 22] | Plant response rating, Cocklebur [3, 23] | Plant response rating, Morningglory [8, 22] | Plant response rating, Morningglory [8, 23] | Plant response rating, Velvetleaf [11, 22] | Plant response rating, Velvetleaf [11, 23] | Plant response rating, Nightshade ([12]; Rate 62 g/ha, scale 0 to 100) | Plant response rating, Nightshade [12, 24] | Plant response rating, Cocklebur [14, 24] | Plant response rating, Cocklebur [14, 26] | Plant response rating (0 to 100), Cocklebur ([14]; preemergence) | Plant response rating, Cocklebur [14, 27] | Plant response rating, Ragweed, Common [15, 24] | Plant response rating, Ragweed, Common [15, 26]

From US7138361B2, “Herbicidal heterocycles” (E. I. du Pont de Nemours and Company, priority 2000, dated 2006)
